Earlier results in paper PMC4323000 (Oncotarget, 2015).

Experiments:
[1] = test system: ABCG2; settings: ref per compound in Table 2; cited from earlier work
[2] = human; GF120918 oral; ref [13],[21],[35],[45]–[48] (GF120918), [26],[50],[51] (Telatinib); cited from earlier work
[3] = test system: ABCG2-overexpressing tumors; settings: cited from earlier work
[4] = oral; ref per compound in Table 2; cited from earlier work

## CNC(=O)c1cc(COc2nnc(Nc3ccc(Cl)cc3)c3ccoc23)ccn1 [Telatinib]
[1]
  In vitro ABCG2 Specificity: No
[2]
  In vivo Toxicity, Chronic: >1 500 mg (human)
[3]; ref per compound in Table 2
  In vivo Impact on Tumor growth: Yes
[3]; telatinib 15 mg/kg in combination with doxorubicin […], xenografted nude mouse model
  effect on ABCG2-overexpressing tumors: significantly decrease the growth rate and tumor size
[4]
  In vivo Toxicity, Acute: >15 mg/kg oral
